According to patent US20240139211A1, “METHODS AND COMPOSITIONS FOR TREATING AMYOTROPHIC LATERAL SCLEROSIS” (Amylyx Pharmaceuticals, Inc., priority 2022, published 2024):
Several values for one entry are separate records, joined by “and”; a condition that tells them apart may be missing. Equal values may be shown once.

Assays:
OATP1B1 = OATP1B1 (Homo sapiens, UniProt Q9Y6L6); assay: in vitro
P-gp = P-gp (Homo sapiens, UniProt P08183); assay: in vitro; conditions: Caco-2 cells, probe 3H-digoxin
hrCYP2B6 = molecular target: T1, hrCYP2B6 (Homo sapiens, UniProt P20813); assay: CYP reaction phenotyping with hrCYP2B6 (% remaining); assay type: in vitro ADME; conditions: hrCYP2B6 20 pmol CYP/mL, 5 μM TA, PB and TUDCA co-incubated
T1 sequence (P20813 1-491): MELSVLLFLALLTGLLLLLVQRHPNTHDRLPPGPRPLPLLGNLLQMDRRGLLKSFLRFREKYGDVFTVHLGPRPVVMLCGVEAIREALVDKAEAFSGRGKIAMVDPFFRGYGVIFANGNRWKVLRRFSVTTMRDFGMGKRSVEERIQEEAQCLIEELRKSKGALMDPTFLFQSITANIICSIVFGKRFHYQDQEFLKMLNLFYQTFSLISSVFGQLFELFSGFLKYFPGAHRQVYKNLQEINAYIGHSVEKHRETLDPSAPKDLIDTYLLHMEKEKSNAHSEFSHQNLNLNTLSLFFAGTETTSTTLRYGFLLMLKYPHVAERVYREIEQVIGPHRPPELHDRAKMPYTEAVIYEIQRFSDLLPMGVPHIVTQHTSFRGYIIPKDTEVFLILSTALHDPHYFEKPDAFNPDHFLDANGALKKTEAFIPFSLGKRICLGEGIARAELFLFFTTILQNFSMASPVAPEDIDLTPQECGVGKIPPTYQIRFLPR

[1] = Rat drug-drug interaction study TDF + AMX0035: urine recovery; assay type: in vivo; conditions: Days 1 and 5
Protocol: Total urine recovery data for Tenofovir, TDF, and PB was calculated for the 24 hour collection period on Days 1 and 5. […] The reported urine recovery data included amount recovered (ng) and percent recovered (%) for […]. Individual and mean Tenofovir, TDF, and PB urine recovery data were presented with SD, reported to three significant figures, and CV %, reported to one decimal place.

[2] = Solubility assessment in HBSSg_7.4 and HBSSg_8.5; conditions: for Measured Concentration / Percent of the Nominal Concentration: replicates 1-3
[3] = molecular target: T2, CYPs in human liver microsomes (HLM) (Homo sapiens, UniProt P05177); assay: CYP reaction phenotyping in HLM with chemical inhibitors (% remaining); conditions: +NADPH +furafylline (CYP1A2), pre-incubated
T2 sequence (P05177 1-516): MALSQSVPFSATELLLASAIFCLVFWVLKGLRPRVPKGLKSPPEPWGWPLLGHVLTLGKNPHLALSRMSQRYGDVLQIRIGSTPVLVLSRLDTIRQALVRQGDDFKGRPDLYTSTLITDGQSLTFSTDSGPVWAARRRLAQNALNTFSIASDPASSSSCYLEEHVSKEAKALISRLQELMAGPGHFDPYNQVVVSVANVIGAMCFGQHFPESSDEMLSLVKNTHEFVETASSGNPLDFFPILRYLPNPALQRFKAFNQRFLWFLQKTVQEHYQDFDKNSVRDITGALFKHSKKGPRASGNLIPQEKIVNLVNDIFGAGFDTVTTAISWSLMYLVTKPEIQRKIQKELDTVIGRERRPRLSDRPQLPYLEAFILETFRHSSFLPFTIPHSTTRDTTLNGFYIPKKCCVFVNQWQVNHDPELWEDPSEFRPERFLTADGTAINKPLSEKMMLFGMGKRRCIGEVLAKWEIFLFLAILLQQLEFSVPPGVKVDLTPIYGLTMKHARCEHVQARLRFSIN

[4] = molecular target: CYPs in human liver microsomes (HLM) (Homo sapiens, UniProt P33261); assay: as above; conditions: +NADPH +N3B (CYP2C19)
[5] = system: CYPs in human liver microsomes (HLM); assay: as above
[6] = Rat drug-drug interaction study TDF + AMX0035: plasma pharmacokinetics; conditions: for Plasma Concentration of analyte at 0.50 hr / Plasma Concentration of analyte at 1.0 hr / Plasma Concentration of analyte at 2.0 hr / Plasma Concentration of analyte at 4.0 hr / Plasma Concentration of analyte at 8.0 hr / Plasma Concentration of analyte at 24 hr / Plasma Concentration of analyte at […] / AUC0-24 / AUClast / Cmax / Tlast / Tmax: male Sprague Dawley rats; for AUC0-24 / AUClast / Cmax / Tlast / Tmax: oral, plasma
[7] = HBSSg_7.4, target 8005 μM TUDCA, 64447 μM PB
[8] = HBSSg_8.5, target 810 μM TUDCA, 73927 μM PB
[9] = Day 1, TDF only 25 mg/kg oral, individual animals, BLQ = <50 ng/mL
[10] = Day 1, TDF only 25 mg/kg oral, mean of 3, BLQ set to zero
[11] = Day 5, AMX0035 + TDF 840/25 mg/kg oral, individual animals, BLQ = <50 ng/mL
[12] = Day 5, AMX0035 + TDF 840/25 mg/kg oral, mean of 3, BLQ set to zero
[13] = Day 1, TDF only 25 mg/kg, individual animals
[14] = Day 1, TDF only 25 mg/kg, mean, N=3
[15] = Day 5, AMX0035 + TDF 840/25 mg/kg, individual animals
[16] = Day 5, AMX0035 + TDF 840/25 mg/kg, mean, N=3

CYPs in human liver microsomes (HLM) (Homo sapiens, UniProt P33261), sequence (P33261 whole entry): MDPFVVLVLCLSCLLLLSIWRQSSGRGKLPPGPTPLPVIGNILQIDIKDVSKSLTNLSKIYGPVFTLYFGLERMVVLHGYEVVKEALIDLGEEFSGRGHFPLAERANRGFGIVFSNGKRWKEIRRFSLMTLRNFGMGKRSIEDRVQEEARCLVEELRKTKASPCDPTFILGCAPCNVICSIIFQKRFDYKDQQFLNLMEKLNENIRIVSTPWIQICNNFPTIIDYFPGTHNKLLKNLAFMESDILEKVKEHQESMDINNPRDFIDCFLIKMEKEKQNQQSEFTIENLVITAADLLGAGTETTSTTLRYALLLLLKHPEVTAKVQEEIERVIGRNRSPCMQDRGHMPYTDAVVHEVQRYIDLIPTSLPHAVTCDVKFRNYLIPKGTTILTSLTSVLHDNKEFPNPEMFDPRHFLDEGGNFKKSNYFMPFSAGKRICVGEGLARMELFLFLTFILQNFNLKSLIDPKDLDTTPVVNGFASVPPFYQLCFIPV
OATP1B1, sequence (Q9Y6L6 whole entry): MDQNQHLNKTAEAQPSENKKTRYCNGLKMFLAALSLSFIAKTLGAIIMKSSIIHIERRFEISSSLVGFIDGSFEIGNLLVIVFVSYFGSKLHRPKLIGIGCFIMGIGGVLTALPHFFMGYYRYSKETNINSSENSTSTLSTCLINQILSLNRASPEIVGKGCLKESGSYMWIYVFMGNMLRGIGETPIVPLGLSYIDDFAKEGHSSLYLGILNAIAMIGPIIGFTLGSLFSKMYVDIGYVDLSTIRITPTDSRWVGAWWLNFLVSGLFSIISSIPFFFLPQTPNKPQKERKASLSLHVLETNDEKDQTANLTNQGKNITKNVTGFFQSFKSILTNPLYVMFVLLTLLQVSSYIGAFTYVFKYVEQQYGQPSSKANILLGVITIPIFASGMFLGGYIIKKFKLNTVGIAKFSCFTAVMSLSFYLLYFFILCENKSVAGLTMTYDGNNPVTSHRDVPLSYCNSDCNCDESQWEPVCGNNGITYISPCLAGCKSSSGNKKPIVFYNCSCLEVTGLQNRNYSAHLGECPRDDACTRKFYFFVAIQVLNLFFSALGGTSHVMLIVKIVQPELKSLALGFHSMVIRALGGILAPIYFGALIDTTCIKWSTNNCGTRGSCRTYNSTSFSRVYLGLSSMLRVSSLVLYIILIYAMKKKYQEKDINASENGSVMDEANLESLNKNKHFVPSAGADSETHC
P-gp, sequence (P08183 whole entry): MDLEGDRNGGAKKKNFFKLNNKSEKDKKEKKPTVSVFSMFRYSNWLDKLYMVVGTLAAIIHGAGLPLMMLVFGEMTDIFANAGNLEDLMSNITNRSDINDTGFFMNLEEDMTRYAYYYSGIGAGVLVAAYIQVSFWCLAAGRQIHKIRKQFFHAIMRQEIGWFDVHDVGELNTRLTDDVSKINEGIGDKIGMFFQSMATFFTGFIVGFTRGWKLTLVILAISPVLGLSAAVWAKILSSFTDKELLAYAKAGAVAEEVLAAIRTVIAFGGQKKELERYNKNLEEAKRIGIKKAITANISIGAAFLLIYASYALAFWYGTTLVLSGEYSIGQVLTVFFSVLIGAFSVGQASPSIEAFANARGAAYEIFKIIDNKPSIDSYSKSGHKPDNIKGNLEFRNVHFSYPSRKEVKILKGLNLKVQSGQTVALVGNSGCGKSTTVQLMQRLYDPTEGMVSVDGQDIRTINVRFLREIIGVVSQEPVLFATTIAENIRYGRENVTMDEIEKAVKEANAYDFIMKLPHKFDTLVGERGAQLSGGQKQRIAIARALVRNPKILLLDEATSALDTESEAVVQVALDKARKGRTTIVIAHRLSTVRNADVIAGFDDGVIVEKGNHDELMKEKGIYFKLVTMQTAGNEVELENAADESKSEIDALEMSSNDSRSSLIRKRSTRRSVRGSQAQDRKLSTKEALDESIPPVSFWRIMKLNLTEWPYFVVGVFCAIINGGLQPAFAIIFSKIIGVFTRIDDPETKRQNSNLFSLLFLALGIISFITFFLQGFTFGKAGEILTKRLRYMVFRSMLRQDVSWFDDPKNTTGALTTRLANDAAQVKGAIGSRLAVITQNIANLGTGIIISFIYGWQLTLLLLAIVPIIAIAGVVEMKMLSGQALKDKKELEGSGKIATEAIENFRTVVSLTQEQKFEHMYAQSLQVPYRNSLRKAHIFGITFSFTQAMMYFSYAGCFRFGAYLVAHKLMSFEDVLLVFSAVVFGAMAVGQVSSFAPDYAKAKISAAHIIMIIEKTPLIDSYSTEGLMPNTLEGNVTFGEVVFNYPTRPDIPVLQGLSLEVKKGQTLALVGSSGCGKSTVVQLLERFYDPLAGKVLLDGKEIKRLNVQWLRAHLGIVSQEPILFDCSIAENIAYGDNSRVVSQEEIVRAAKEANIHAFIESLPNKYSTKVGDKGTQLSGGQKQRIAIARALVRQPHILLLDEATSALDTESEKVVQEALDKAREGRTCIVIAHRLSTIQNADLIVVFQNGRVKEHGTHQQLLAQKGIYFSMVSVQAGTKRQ

C[C@H](CCC(=O)NCC(=O)O)[C@H]1CC[C@H]2[C@@H]3[C@@H](O)C[C@@H]4C[C@H](O)CC[C@]4(C)[C@H]3CC[C@]12C [Glycoursodeoxycholic acid, glycoursodeoxycholic acid]
potency estimated from few doses (OATP1B1): ~10 µM
potency estimated from few doses (P-gp): < 10 µM

tauroursodeoxycholic acid [TUDCA]
% Remaining of TA (hrCYP2B6; 0 min): 100%
% Remaining of TA (hrCYP2B6; 5 min): 97.6%
% Remaining of TA (hrCYP2B6; 10 min): 97.0%
% Remaining of TA (hrCYP2B6; 20 min): 99.3%
% Remaining of TA (hrCYP2B6; 30 min): 99.7%
% Remaining of TA (hrCYP2B6; 60 min): 101%
Detection in urine [1]: not detected in any urine samples
Soluble up to target concentration ([2]; HBSSg_7.4, 37° C. overnight): ≥ 8005 µM
Measured Concentration [2, 7]: 6710 µM and 6950 µM and 6770 µM
Percent of the Nominal Concentration [2, 7]: 83.8% and 86.8% and 84.6%
Soluble up to target concentration ([2]; HBSSg_8.5, 37° C. overnight): ≥ 810 µM
Measured Concentration [2, 8]: 719 μM and 704 μM (2×)
Percent of the Nominal Concentration [2, 8]: 88.8% and 86.9% (2×)
% remaining of TA in HLM ([3]; 5 min): 123%
% remaining of TA in HLM ([3]; 10 min): 123%
% remaining of TA in HLM ([3]; 20 min): 121%
% remaining of TA in HLM ([3]; 30 min): 120%
% remaining of TA in HLM ([3]; 60 min): 128%
% remaining of TA in HLM ([4]; 5 min): 106%
% remaining of TA in HLM ([4]; 10 min): 93.0%
% remaining of TA in HLM ([4]; 20 min): 93.1%
% remaining of TA in HLM ([4]; 30 min): 92.1%
% remaining of TA in HLM ([4]; 60 min): 94.5%
Metabolism by the major CYPs in HLM [5]: neither PB nor TUDCA is metabolized
% remaining of TA in HLM ([5]; +NADPH +ketoconazole (CYP3A), 10 min): 110%
% remaining of TA in HLM ([5]; +NADPH +ketoconazole (CYP3A), 20 min): 108%
% remaining of TA in HLM ([5]; +NADPH +ketoconazole (CYP3A), 30 min): 94.1%
% remaining of TA in HLM ([5]; Maximum Metabolism-1: +NADPH −inhibitor, pre-incubated, 5 min): 112%
% remaining of TA in HLM ([5]; Maximum Metabolism-1: +NADPH −inhibitor, pre-incubated, 10 min): 126%
% remaining of TA in HLM ([5]; Maximum Metabolism-1: +NADPH −inhibitor, pre-incubated, 20 min): 123%
% remaining of TA in HLM ([5]; Maximum Metabolism-1: +NADPH −inhibitor, pre-incubated, 30 min): 121%
% remaining of TA in HLM ([5]; Maximum Metabolism-1: +NADPH −inhibitor, pre-incubated, 60 min): 121%
% remaining of TA in HLM ([5]; Maximum Metabolism-2: +NADPH −inhibitor, 5 min): 103%
% remaining of TA in HLM ([5]; Maximum Metabolism-2: +NADPH −inhibitor, 10 min): 103%
% remaining of TA in HLM ([5]; Maximum Metabolism-2: +NADPH −inhibitor, 20 min): 103%
% remaining of TA in HLM ([5]; Maximum Metabolism-2: +NADPH −inhibitor, 30 min): 102%
% remaining of TA in HLM ([5]; Maximum Metabolism-2: +NADPH −inhibitor, 60 min): 96.9%
% remaining of TA in HLM ([5]; Negative Control-1: −NADPH −inhibitor, pre-incubated, 5 min): 117%
% remaining of TA in HLM ([5]; Negative Control-1: −NADPH −inhibitor, pre-incubated, 10 min): 129%
% remaining of TA in HLM ([5]; Negative Control-1: −NADPH −inhibitor, pre-incubated, 20 min): 119%
% remaining of TA in HLM ([5]; Negative Control-1: −NADPH −inhibitor, pre-incubated, 30 min): 130%
% remaining of TA in HLM ([5]; Negative Control-1: −NADPH −inhibitor, pre-incubated, 60 min): 132%
% remaining of TA in HLM ([5]; Negative Control-2: −NADPH −inhibitor, 5 min): 104%
% remaining of TA in HLM ([5]; Negative Control-2: −NADPH −inhibitor, 10 min): 104%
% remaining of TA in HLM ([5]; Negative Control-2: −NADPH −inhibitor, 20 min): 105%
% remaining of TA in HLM ([5]; Negative Control-2: −NADPH −inhibitor, 30 min): 106%
% remaining of TA in HLM ([5]; Negative Control-2: −NADPH −inhibitor, 60 min): 106%
Plasma Concentration of analyte at 0.50 hr [6, 9]: 154 ng/mL and 148 ng/mL and 45.4 ng/mL
Plasma Concentration of analyte at 1.0 hr [6, 9]: 239 ng/mL and 197 ng/mL and 108 ng/mL
Plasma Concentration of analyte at 2.0 hr [6, 9]: 313 ng/mL and 186 ng/mL and 76.8 ng/mL
Plasma Concentration of analyte at 4.0 hr [6, 9]: 199 ng/mL and 153 ng/mL and 71.4 ng/mL
Plasma Concentration of analyte at 8.0 hr [6, 9]: 338 ng/mL and 211 ng/mL and 68.8 ng/mL
Plasma Concentration of analyte at 24 hr [6, 9]: 267 ng/mL and 287 ng/mL and 113 ng/mL
Plasma Concentration of analyte at […] [6, 9]: 201 ng/mL and 121 ng/mL and 69.3 ng/mL
Plasma Concentration of analyte at 0.50 hr [6, 10]: 116 ng/mL
Plasma Concentration of analyte at 1.0 hr [6, 10]: 181 ng/mL
Plasma Concentration of analyte at 2.0 hr [6, 10]: 192 ng/mL
Plasma Concentration of analyte at 4.0 hr [6, 10]: 141 ng/mL
Plasma Concentration of analyte at 8.0 hr [6, 10]: 139 ng/mL
Plasma Concentration of analyte at 24 hr [6, 10]: 222 ng/mL
Plasma Concentration of analyte at […] [6, 10]: 130 ng/mL
Mean endogenous plasma levels ([6]; Day 1, no AMX0035, over 24 hours): 130 to 222 ng/mL
Increase of plasma concentration vs Day 1 at each time point ([6]; Day 5): 30-50%
Peak (Cmax) plasma value ([6]; Day 5, AMX0035 840 mg/kg PO): 298 ng/mL
Plasma Concentration of analyte at 0.50 hr [6, 11]: 96.1 ng/mL and 225 ng/mL and 183 ng/mL
Plasma Concentration of analyte at 1.0 hr [6, 11]: 154 ng/mL and 236 ng/mL and 366 ng/mL
Plasma Concentration of analyte at 2.0 hr [6, 11]: 126 ng/mL and 200 ng/mL and 505 ng/mL
Plasma Concentration of analyte at 4.0 hr [6, 11]: 123 ng/mL and 176 ng/mL and 255 ng/mL
Plasma Concentration of analyte at 8.0 hr [6, 11]: 103 ng/mL and 172 ng/mL and 187 ng/mL
Plasma Concentration of analyte at 24 hr [6, 11]: 130 ng/mL and 216 ng/mL and 178 ng/mL
Plasma Concentration of analyte at […] [6, 11]: 84.0 ng/mL and 220 ng/mL and 235 ng/mL
Plasma Concentration of analyte at 0.50 hr [6, 12]: 168 ng/mL
Plasma Concentration of analyte at 1.0 hr [6, 12]: 252 ng/mL
Plasma Concentration of analyte at 2.0 hr [6, 12]: 277 ng/mL
Plasma Concentration of analyte at 4.0 hr [6, 12]: 185 ng/mL
Plasma Concentration of analyte at 8.0 hr [6, 12]: 154 ng/mL
Plasma Concentration of analyte at 24 hr [6, 12]: 175 ng/mL
Plasma Concentration of analyte at […] [6, 12]: 180 ng/mL
AUC0-24 [6, 13]: 2040 ng·h/mL and 4870 ng·h/mL and 5380 ng·h/mL
AUClast [6, 13]: 2040 ng·h/mL and 4870 ng·h/mL and 5380 ng·h/mL
Cmax [6, 13]: 113 ng/mL and 313 ng/mL and 287 ng/mL
Tlast [6, 13]: 24 h
Tmax [6, 13]: 24 h and 2.0 h
AUC0-24 [6, 14]: 409 ng·h/mL
AUClast [6, 14]: 4090 ng·h/mL
Cmax [6, 14]: 238 ng/mL
Tlast [6, 14]: 24 h
Tmax [6, 14]: 17 h
AUC0-24 [6, 15]: 2800 ng·h/mL and 4590 ng·h/mL and 5220 ng·h/mL
AUClast [6, 15]: 2800 ng·h/mL and 4590 ng·h/mL and 5220 ng·h/mL
Cmax [6, 15]: 154 ng/mL and 236 ng/mL and 505 ng/mL
Tlast [6, 15]: 24 h
Tmax [6, 15]: 1.0 h and 2.0 h
AUC0-24 [6, 16]: 4200 ng·h/mL
AUClast [6, 16]: 4200 ng·h/mL
Cmax [6, 16]: 298 ng/mL
Tlast [6, 16]: 24 h
Tmax [6, 16]: 1.3 h
